Common to all, as to type: binding
One assay deals with PA dimer (PA2). The assay is described as follows: DEER of singly labeled peptides in solution (dimerization).
For assay [1], the system named is polyU. The assay is described as follows: DEER of peptides in the presence of polyU. The settings on record: for local concentration of detected spins: from DEER background decay, calibration curve. As to the method: (§1) For pulse EPR measurements, 5–6 μL of peptide in D2O with 20% glycerol-d8 was introduced into a quartz capillary of 0.9 mm i.d. and 1.1 mm o.d. and sealed with Critoseal at one end. The samples with polyU (and thus, the potential for coacervates) were flash-frozen in liquid nitrogen after incubating at room temperature for 15–20 min. Samples without polyU were directly inserted into the spectrometer at 25 K.
Pulse EPR measurements were carried out at the W band (94.9 GHz) on a home-built spectrometer at 25 K.[22]−[24] Echo intensities were measured with a Hahn echo sequence (π/2νobs – τ – πνobs – τ – echo) using π/2 and π pulses of 20–25 ns and 40–50 ns, respectively, and τ = 500 ns. Echo decays were measured under the same conditions with an initial τ value of 500 ns. DEER measurements were recorded using the four-pulse DEER sequence (π/2νobs – τ1 – πνobs – (τ1 + t) – πνpump – (τ2-t) – πνobs – τ2 – echo)[25],[26] with a chirp pump pulse[23] using eight-step phase cycling and monitoring the echo intensity as a function of increasing t. The maximum intensity of the nitroxide spectrum was set to 94.9 GHz, the observer pulses were set to 94.85 GHz, and the π/2 and π pulse durations were 35–40 and 70–80 ns. The chirp pump pulse frequency was 94.88–94.98 GHz with a duration of 128 ns. The repetition time was 10 ms. The samples without polyU and a concentration above 50 μM were averaged for 1–5 h. All the samples with a concentration ≤50 μM and all the samples in the presence of polyU were averaged for 6–14 h. The DEER data were analyzed using the DeerAnalysis 2018[27] program with Tikhonov regularization[28] and also verified with DEERNet.[29] For DeerAnalysis, the background was fitted with a homogenous three-dimensional distribution. The calculated distance distributions were obtained from mtsslSuite[30] using maleimide TEMPO (M-TEMPO) as the ligand, and 200 rotamer conformations were generated using clash treatment set to “loose”.
We carried out DEER measurements on the series of samples with 150 μM PA-12 and varying amounts of polyU (Figure 5A). DEER traces were analyzed in terms of several parameters: (i) the modulation depth, Δ, which gives information about the amount of dimers present; (ii) the slope of the background decay, which gives information on the average local concentration of the observed spins;[36],[40] and (iii) the SNR, which indicates how many spins were observed. […] The decrease in the background decay slope and SNR are consistent with the observed reduction in echo intensity (Figure 4A). We therefore conclude that the observed DEER modulation arose from the unbound PA-12 dimers, whereas the polyU-bound PA-12 could not be detected, as discussed in the description of the echo decays. As the polyU concentration increases, the PA-12 concentration in the dispersed phase decreases and therefore the dimer population decreases as well (eq 1), ultimately resulting in the disappearance of the modulation at about 0.5 mg/mL polyU.
We summarized our experimental observations in Figure 5B, where we plot the decrease degree (in %) in the background decay, the echo intensity, and the modulation depth as a function of polyU concentration. For all parameters, the graphs show a similar linear behavior in the high PA/polyU regime below 0.5 mg/mL polyU. […] At 0.5 mg/mL polyU, an inflection point is detected: Above 0.5 mg/mL polyU, population II reaches a plateau and we have a small gain in echo intensity and background decay, but a large gain in modulation depth. From this series of experiments, we conclude that PA bound to polyU has restricted motion and that dimers of PA exist also when bound to polyU within the coacervate. We determined the local concentration of the spins contributing to the DEER traces in the PA/polyU mixtures from a calibration curve generated from the background decay slopes of the DEER data of PA-12 in the absence of polyU (Figure S10D), and the results are given in Table 2. […]

Assay [2] concerns polyU. As to the kind of experiment: W-band echo intensity and echo decay of PA-12 with polyU. The method, then: as §1
Pulse EPR measurements were carried out at the W band (94.9 GHz) on a home-built spectrometer at 25 K.[22]−[24] Echo intensities were measured with a Hahn echo sequence (π/2νobs – τ – πνobs – τ – echo) using π/2 and π pulses of 20–25 ns and 40–50 ns, respectively, and τ = 500 ns. Echo decays were measured under the same conditions with an initial τ value of 500 ns. DEER measurements were recorded using the four-pulse DEER sequence (π/2νobs – τ1 – πνobs – (τ1 + t) – πνpump – (τ2-t) – πνobs – τ2 – echo)[25],[26] with a chirp pump pulse[23] using eight-step phase cycling and monitoring the echo intensity as a function of increasing t. […] The DEER data were analyzed using the DeerAnalysis 2018[27] program with Tikhonov regularization[28] and also verified with DEERNet.[29] […] The calculated distance distributions were obtained from mtsslSuite[30] using maleimide TEMPO (M-TEMPO) as the ligand, and 200 rotamer conformations were generated using clash treatment set to “loose”. […]

From article PMC9376946, “Peptide-RNA Coacervates as a Cradle for the Evolution of Folded Domains” (Journal of the American Chemical Society, 2022) come the findings set out here.

“And” between values parts separate entries of the source, which are not always exact repeats. Equal values may be shown once.

Protocol for PA dimer (PA2): Lyophilized, spin-labeled peptides were dissolved in Milli-Q water and centrifuged at 4000 rpm for 10 min to remove insoluble aggregates. The soluble fractions were used to prepare stock solutions of 250–500 μM peptide. Labeled peptide concentrations were determined by comparing the area under the curve of the EPR signal against that of standard solutions of 10–285 μM TEMPO. For the EPR measurements in D2O, 200 μL of the stock solution was lyophilized and re-dissolved in D2O. The concentration of the unlabeled peptide stock solutions was determined using the bicinchoninic acid assay (Thermo Fisher Scientific) and ranged from 0.8 to 1.2 mM peptide. […]

On to “RIRRASVEELTCVPGIGPRLARRILERLA [PA-12, Precursor-Arg peptide in which position 12 has been modified with a cysteine and attached to an M-TEMPO spin label]”, for which the “DEER modulation depth (Δ)” value in the assay on PA dimer (PA2) (30 μM, without polyU) came out at 2%. For the same sequence, the “inter-monomer distances upon spin dilution” value in the assay with PA dimer (PA2) (about 10% spin-labeled peptide, 200 μM total PA) is listed as “inter-monomer distances practically disappear”. Moreover, in the assay with polyU [1] (30 μM PA-12, 1 mg/mL polyU, corrected for 40% component I), the “maximum modulation depth corrected for free PA” value turned out to be 9.5%. Besides, the “DEER modulation depth (Δ) with polyU” value came out at 5.7% in the assay with polyU [1] (30 μM PA-12, 1 mg/mL polyU, local concentration 25 μM) and 2% with polyU [1] (150 μM PA-12, 1 mg/mL polyU). Moreover, the “DEER modulation depth with polyU (in words)” value in the assay on polyU [1] (100 μM PA-12, 2 mg/mL polyU) was “higher modulation depth than the sample with 1 mg/mL polyU”. The “DEER modulation with polyU (in words)” value in the assay with polyU [1] (150 μM PA-12, 0.5 mg/mL polyU) is given as “modulation could no longer be detected”; in the assay on polyU [1] (150 μM PA-12, 1 mg/mL polyU), “modulation reappeared again”. Also, the “local concentration of detected spins” value in the assay on polyU [1] (PA-12 30 μM / polyU 1 mg/mL) is 25 µM and 25 ± 2 µM; in the assay on polyU [1] (PA-12 100 μM / polyU 1 mg/mL), 48 ± 4.5 µM; in the assay on polyU [1] (PA-12 100 μM / polyU 2 mg/mL), 53 ± 5 µM; in the assay with polyU [1] (PA-12 150 μM / polyU 0.1 mg/mL), 91 ± 8 µM; in the assay with polyU [1] (PA-12 150 μM / polyU 0.2 mg/mL), 75 ± 7 µM; in the assay on polyU [1] (PA-12 150 μM / polyU 0.35 mg/mL), 45 ± 4 µM. The “local concentration of detected spins” value was 2.3 µM and 2.3 ± 2 µM with polyU [1] (PA-12 150 μM / polyU 0.5 mg/mL); 23 µM and 23 ± 2 µM in the assay on polyU [1] (PA-12 150 μM / polyU 1 mg/mL). The echo signal remaining in the assay with polyU [2] (150 μM PA-12, 0.5 mg/mL polyU (plateau), relative to no polyU) worked out at 8%. In addition, the fast-decaying echo component entry in the assay with polyU [2] (1 mg/mL polyU, 80% spin dilution, final PA 150 μM) was “the fast-decaying component became clearly visible”.
